Where a name gives a salt, the structure may show the parent alone. Read-outs that look alike come from different tables or passages of the source.
Legend:
[1] = test system: fibrin- and LPS-induced microglia activation; test: cells; format: cell-based, rat
[2] = test system: primary rat microglia;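 for Fibrin % cell toxicity: share of dead cells sized under 150 µm2 at 10 µM in fibrin-stimulated microglia HTS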
[3] = test system: fibrin-induced microglia activation; test: Image-based assay of fibrin-induced microglia activation (HTS and dose response); format: cell-based, rat; settings: for inhibition at 10 µM / IC50: Rattus norvegicus, Microglia; for inhibition at 10 µM: read-out: Fibrin % inhibition
[4] = test system: primary rat microglia; remark: listed apart in the source;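 for Fibrin % cell toxicity: share of dead cells sized under 150 µm2 at 10 µM in fibrin-stimulated microglia HTS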
[5] = test system: LPS-induced microglia activation; test: Image-based assay of LPS-induced microglia activation (HTS and dose response); format: cell-based, rat; settings: for inhibition at 10 µM / IC50: Rattus norvegicus, Microglia; for inhibition at 10 µM: read-out: LPS % inhibition
[6] = primary HTS, 10 μM, fibrin-stimulated primary microglia
[7] = primary HTS, 10 μM, LPS-stimulated primary microglia
[8] = classification by fibrin and LPS inhibition, HTS at 10 μM
[9] = primary microglia HTS, fibrin stimulation, compounds at 10 μM
[10] = primary microglia HTS, LPS stimulation, compounds at 10 μM
[11] = quadrant by fibrin and LPS inhibition in HTS of 1907 compounds
[12] = primary microglia HTS, fibrin stimulation, increased cell size (>800 μm^2) as marker of activation
[13] = 48 h, primary microglia HTS, LPS stimulation, increased cell size (>800 μm^2) as marker of activation

Row | SMILES | Fibrin % cell toxicity ([2]; rat) [%] | LPS % cell toxicity ([4]; rat) [%] | Quadrant (FIG. 5b) [1] | inhibition at 10 µM [3] [%] | inhibition at 10 µM [5] [%] | Quadrant (FIG. 5b) [1, 8] | other results
1 | COc1cc(N)c(Cl)cc1C(=O)NC1CCN(CCCOc2ccc(F)cc2)CC1OC (centres unmarked) [Cisapride] | 0 | 0 |  |  |  |  | Quadrant (FIG. 5b) ([1]; primary HTS, 10 μM): Q4; inhibition at 10 µM [3, 6]: -38%; inhibition at 10 µM [5, 7]: 5%
2 | C[N+](C)(C)CCOP(=O)(O)OP(=O)([O-])OC[C@H]1O[C@@H](n2ccc(N)nc2=O)[C@H](O)[C@@H]1O [Citicoline] | 1 | 0 |  |  |  |  | Quadrant (FIG. 5b) ([1]; primary HTS, 10 μM): Q4; inhibition at 10 µM [3, 6]: 5%; inhibition at 10 µM [5, 7]: 16%
3 | O=C(O)CC(O)(CC(=O)O)C(=O)O [Citric Acid] | 1 | 0 | Q4 | -36 | -6 |  | 
4 | Nc1nc(Cl)nc2c1ncn2[C@H]1C[C@H](O)[C@@H](CO)O1 [Cladribine] | 1 | 0 |  |  |  |  | Quadrant (FIG. 5b) ([1]; primary HTS, 10 μM): Q4; inhibition at 10 µM [3, 6]: -23%; inhibition at 10 µM [5, 7]: 6%
5 | CC[C@H]1OC(=O)[C@H](C)[C@@H](O[C@H]2C[C@@](C)(OC)[C@@H](O)[C@H](C)O2)[C@H](C)[C@@H](O[C@@H]2O[C@H](C)C[C@H](N(C)C)[C@H]2O)[C@](C)(OC)C[C@@H](C)C(=O)[C@H](C)[C@@H](O)[C@]1(C)O [Clarithromycin] | 1 | 0 |  |  |  |  | Quadrant (FIG. 5b) ([1]; primary HTS, 10 μM): Q4; inhibition at 10 µM [3, 6]: -7%; inhibition at 10 µM [5, 7]: 18%
6 | Clc1ccc(Cn2c(CN3CCCC3)nc3ccccc32)cc1 [Clemizole Hydrochloride] | 0 | 1 |  |  |  |  | Quadrant (FIG. 5b) ([1]; primary HTS, 10 μM): Q4; inhibition at 10 µM [3, 6]: -38%; inhibition at 10 µM [5, 7]: 21%
7 | CC(C)(C)NCC(O)c1cc(Cl)c(N)c(Cl)c1 (centres unmarked) [Clenbuterol] | 1 | 0 |  |  |  |  | Quadrant (FIG. 5b) ([1]; primary HTS, 10 μM): Q4; inhibition at 10 µM [3, 6]: 11%; inhibition at 10 µM [5, 7]: 25%
8 | CCN(CC)CCOc1ccc(C(=C(Cl)c2ccccc2)c2ccccc2)cc1 [Clomiphene] | 1 | 0 | Q4 | 11 | 7 |  | 
9 | CN(C)CCCN1c2ccccc2CCc2ccc(Cl)cc21 [Clomipramine] | 1 | 1 | Q4 | -1 | 32 |  | 
10 | Clc1cccc(Cl)c1N=C1NCCN1 [Clonidine] | 1 | 0 | Q4 | -22 | 14 |  | 
11 | COC(=O)[C@H](c1ccccc1Cl)N1CCc2sccc2C1 [Clopidogrel] | 1 | 0 | Q4 | -24 | 7 |  | 
12 | Nc1cc(C(Cl)=C(Cl)Cl)c(S(N)(=O)=O)cc1S(N)(=O)=O [Clorsulon] | 0 | 0 | Q4 | 0 | 17 |  | 
13 | Clc1ccccc1C(c1ccccc1)(c1ccccc1)n1ccnc1 [Clotrimazole] | 1 | 0 | Q4 | -13 | 13 |  | 
14 | CN1CCN(C2=Nc3cc(Cl)ccc3Nc3ccccc32)CC1 [Clozapine] | 0 | 0 | Q4 | 3 | 9 |  | 
15 | COc1cc2c(c(OC)c1OC)-c1ccc(OC)c(=O)cc1[C@@H](NC(C)=O)CC2 [Colchicine, reference compound] | 12 | 10 | Q2 | 114 |  |  | Activity [1]: fib/LPS; inhibition at 10 µM ([5]; 48 h): 113%
16 | CC=CC(=O)N(CC)c1ccccc1C [Crotamiton] |  |  |  |  |  | Q4 | Fibrin % cell toxicity [2]: 0%; Fibrin % inhibition [3, 9]: 12%; LPS % cell toxicity [4]: 0%; LPS % inhibition [5, 10]: 3%
17 | O=S(=O)(O)NC1CCCCC1 [Cyclamic Acid] | 0 | 0 | Q4 | 4 | 13 |  | 
18 | CN(C)CCC=C1c2ccccc2C=Cc2ccccc21 [Cyclobenzaprine] | 0 | 1 | Q4 | -29 | 35 |  | 

Row | SMILES | Fibrin % cell toxicity ([2]; rat) [%] | LPS % cell toxicity ([4]; rat) [%] | Quadrant (FIG. 5b) [1] | inhibition at 10 µM [3] [%] | inhibition at 10 µM [5] [%] | Quadrant (FIG. 5b) [1, 8] | other results
19 | CN1CCC(=C2c3ccccc3C=Cc3ccccc32)CC1 [Cyproheptadine] | 1 | 1 | Q4 | 24 | 43 |  | 
20 | NCCS [Cysteamine] | 0 | 0 | Q4 | 9 | 12 |  | 
21 | Nc1ccn([C@@H]2O[C@H](CO)[C@@H](O)[C@@H]2O)c(=O)n1 [Cytarabine] | 0 | 0 |  |  |  | Q4 | inhibition at 10 µM [3, 9]: -19%; inhibition at 10 µM [5, 10]: 14%
22 | O=c1cccc2n1C[C@@H]1CNC[C@H]2C1 [Cytisine] | 1 | 1 | Q4 | 23 | 16 |  | 
23 | CC12CCC(CC1=O)C2(C)C [D-camphor] |  |  |  |  |  | Q4 | Fibrin % cell toxicity [2]: 0%; Fibrin % inhibition [3, 9]: −32%; LPS % cell toxicity [4]: 0%; LPS % inhibition [5, 10]: 6%
24 | O.OC[C@@H](O)[C@@H](O[C@@H]1O[C@H](CO)[C@H](O)[C@H](O)[C@H]1O)[C@H](O)[C@@H](O)CO [D-lactitol Monohydrate] |  |  |  |  |  | Q4 | Fibrin % cell toxicity [2]: 1%; Fibrin % inhibition [3, 9]: 11%; LPS % cell toxicity [4]: 0%; LPS % inhibition [5, 10]: 16%
25 | CN(C)/N=N/c1[nH]cnc1C(N)=O [Dacarbazine] | 0 | 0 |  |  |  | Q4 | inhibition at 10 µM [3, 9]: -13%; inhibition at 10 µM [5, 10]: 17%
26 | O=C1CN(/N=C/c2ccc(-c3ccc([N+](=O)[O-])cc3)o2)C(O)=N1 [Dantrolene] | 1 | 0 |  |  |  | Q4 | inhibition at 10 µM [3, 9]: -6%; inhibition at 10 µM [5, 10]: 14%
27 | Nc1ccc(S(=O)(=O)c2ccc(N)cc2)cc1 [Dapsone] | 1 | 0 |  |  |  | Q4 | inhibition at 10 µM [3, 9]: -23%; inhibition at 10 µM [5, 10]: 11%
28 | COc1cccc2c1C(=O)c1c(O)c3c(c(O)c1C2=O)C[C@@](O)(C(C)=O)C[C@@H]3O[C@H]1C[C@H](N)[C@H](O)[C@H](C)O1 [Daunorubicin] | 77 | 57 |  |  |  |  | Quadrant (FIG. 5b) [1, 11]: Q2; inhibition at 10 µM [3, 12]: 116%; inhibition at 10 µM [5, 13]: 114%
29 | Cc1c(O)c(=O)ccn1C [Deferiprone] | 1 | 0 |  |  |  | Q4 | inhibition at 10 µM [3, 9]: 31%; inhibition at 10 µM [5, 10]: 18%
30 | CC(=O)C1C(=O)C=C(C)OC1=O (centres unmarked) [Dehydroacetic Acid] | 0 | 0 |  |  |  | Q4 | inhibition at 10 µM [3, 9]: -36%; inhibition at 10 µM [5, 10]: 2%
31 | CNCCCN1c2ccccc2CCc2ccccc21 [Desipramine hydrochloride, reference compound] | 1 | 4 |  |  |  |  | Activity [1]: fib/LPS; Quadrant (FIG. 5b) ([1]; Table 2, screen at 10 μM): Q1; Quadrant (FIG. 5b) [1, 11]: Q1; IC50 ([3]; Table 7, read-out: fib_IC50): 1.62 µM; inhibition at 10 µM [3, 12]: -2%; inhibition at 10 µM [5, 13]: 83%; IC50 ([5]; Table 7, read-out: LPS_IC50): 0.002 µM
32 | CN(C)CC(c1ccc(O)cc1)C1(O)CCCCC1 (centres unmarked) [Desvenlafaxine] | 1 | 1 |  |  |  | Q4 | inhibition at 10 µM [3, 9]: 13%; inhibition at 10 µM [5, 10]: 3%
33 | CC(=O)OCC(=O)[C@@]1(O)[C@H](C)C[C@H]2[C@@H]3CCC4=CC(=O)C=C[C@]4(C)[C@@]3(F)[C@@H](O)C[C@@]21C [Dexamethasone acetate, reference compound] | 4 | 7 | Q2 | 112 |  |  | IC50 ([3]; read-out: fib_IC50 (uM)): 0.002 µM; inhibition at 10 µM ([5]; 48 h): 105%; IC50 ([5]; read-out: LPS_IC50 (uM)): 0.002 µM
34 | CN(C)CC[C@@H](c1ccc(Cl)cc1)c1ccccn1 [Dexchlorpheniramine] | 1 | 0 | Q4 |  |  |  | inhibition at 10 µM [3, 9]: -8%; inhibition at 10 µM [5, 10]: 11%
35 | CC(C)Cc1ccc([C@H](C)C(=O)O)cc1 [Dexibuprofen] | 1 | 0 |  |  |  | Q4 | inhibition at 10 µM [3, 9]: -3%; inhibition at 10 µM [5, 10]: 13%

From patent US20210330611A1, “THERAPY FOR NEUROLOGICAL DISEASES/DISORDERS” (priority 2020, published 2021)
